This is an account of results in patent EP1598418A1, “STABILISED COMPOSITION FOR FLUORIMETRIC, COLORIMETRIC OR CHEMOLUMINESCENT ASSAYS, KITS CONTAINING SAME AND PRODUCTION METHOD THEREOF” (BIOTOOLS BIOTECHNOLOGICAL & MEDICAL LABORATORIES, S.A., priority 2003, dated 2004).

What all share (settings): conserved at T 4 °C, vs fresh mixture
For assay [1], the system named is Molecular Beacon (MB) probe. Description: Real-time amplification with desiccated, stabilised reaction mixture with Molecular Beacon probe after storage (Example 3). Format: biochemical, P. falciparum.
For assay [2], the system named is nucleic acids immobilised in ELISA microplates. Description: Amplification and colorimetric detection with stabilised nucleic acids immobilised in ELISA microplates (Example 10.1).
Another assay concerns FRET probes. Description: Real-time amplification with desiccated, stabilised reaction mixture with FRET probes after storage (Example 1). It is filed as biochemical, P. falciparum.
Another assay has as its system antidigoxygenin antibody. Description: Colorimetry assay of stabilised protein immobilised in ELISA microplates (Example 10.2). It is filed as biochemical, HPV. The procedure: To do so each dimple was incubated with 1µg of antidigoxygenin antibody (Roche).
The amplified product was incubated for 30 minutes in the dimples with the antibody immobilised. The amplified products immobilised in the plate by the union of the digoxygenin group of the amplicons and the immobilised anti-digoxygenin group were analysed by a colorimetric assay. […] The colorimetric reaction was finally analysed by measuring absorption at 415 nm.

In assay [3] the test system is nucleic acids immobilised in modified glasses. The assay is described as follows: Colorimetric assay of stabilised nucleic acids immobilised in modified glasses (Example 10.3). Format: biochemical, HPV 16. On the procedure: Approach 1. Stabilisation of supports with previously fixed nucleic acids. HPV specific probes were fixed to glass supports pre-treated with polylysiun, aldehyde, epoxy, superepoxy and silane. To do so, in each support slide 1 microlitre spots were applied of the solution of each oligonucleotide at a concentration of 20 µM in the conditions indicated for each glass format. The slides with the immobilised oligonucleotides were then coated with a thin layer of each of the stabilising mixtures and then desiccated in a vacuum oven at 25°C and 50 mbar pressure.
Approach 2. Fixation to the slides of the nucleic acids pre-mixed with the stabilising mixtures. A mixture was prepared of each of the probes with the suitable volumes of the stabilising mixtures described in Table 1. Then the mixtures of oligonucleotides were applied to the various slides with the fixing conditions indicated for each glass format.
To test the viability of each slide prepared, a colorimetric assay was performed with formation of precipitate products. To do so, the slides were washed for 5 minutes in PBS 1X at room temperature to eliminate the protective layer. Then the slides were incubated in the presence of an amplified and previously denatured HPV 16 product using the probes A11 and A12.

For another assay, the system named is TaqMan probes. Description: Real-time amplification with desiccated, stabilised reaction mixture with TaqMan probes after storage (Example 2). Format: biochemical, P. falciparum.
The test system of assay [4] is DTCS Quick Start Master Mix. The assay is described as follows: Sequencing reaction with desiccated, stabilised mixture with fluorescent terminators after storage (Example 6). It is filed as biochemical, human papillomavirus. The procedure:
To test the possibility of gelling reaction mixtures for sequencing nucleic acids the CEQ 200 Dye Terminator Cycle Sequencing (DTCS) Quick Start Kit (Beckman Coulter) was employed, which uses a PCR sequencing system in a single tube by incorporating four different fluorescent terminators. The sequencing reactions were later analysed in a CEQ 2000 XL DNA Analysis System (Beckman Coulter) capillary electrophoresis automatic sequencing system.
Reaction mixtures were prepared containing 4 microlitres of DTCS Quick Start Master Mix, 1 microlitre of universal primer M13-17 and the suitable volume of each stabilising mixture shown in Table 1.
In parallel, in order to check the evolution of the activity of the desiccated and stabilised tubes, the same plasmid was sequenced using a fresh sequencing mixture in standard conditions. Finally, the sequencing reactions were analysed in the CEQ 200XL system following the supplier's instructions.

For assay [5], the system named is oligonucleotides chemically modified by including biotin and/or digoxygenin groups. Description: Amplification with desiccated biotin/digoxygenin oligonucleotides and colorimetric ELISA plate assay (Example 7). Format: biochemical, oncogenic HPV. On the procedure:
To do so, 4 oligonucleotides were designed that hybridised with the genome of region E6-E7 of oncogenic HPV species.
To do so, an ELISA microplate with a high-binding capacity to streptoavidin (Biospa) was activated following a standard fixing protocol. Then, after blocking the plate by incubation with gelatine, the amplified products of the stabilising mixtures 1, 2 and 3 described in Example 7.A were analysed by a colorimetry assay according to the following experimental process: • A.- Amplification products using an onligonucleotide marked with digoxygenin (mixture 1 in Example 7.A). The biotinated probe A11 was fixed to the plate and the amplified product was hybridised. […] The amplification product was fixed to the plate with the first biotinilate and then hybridised with the first A12 marked with digoxygenin.

The test system of assay [6] is streptoavidin conjugated with HRP (Str-HRP) and anti-digoxygenin conjugated with alkaline phospatase (anti-DIG-AP). The assay is described as follows: Colorimetric ELISA plate activity test of desiccated, stabilised conjugates (Example 8). It is filed as biochemical, HPV 16. The procedure: In 0.2 ml amplification tubes were added 100 microlitres of a 1/250 dilution in a blocking solution of the conjugate Str-HRP (Biospa). In parallel, 0.2 ml phials were prepared in which 100 microlitres were added of a 1/250 dilution in a blocking solution of anti-DIG-AP (Sigma).
For the activity assay of the conjugate anti-DIG-AP an ELISA plate was used in which the dimples had been previously coated with streptoavidin. For the activity assay of conjugate Str-HRP a plate was used instead with dimples previously coated with anti-DIG antibodies. The amplified products were incubated in each plate to allow the immobilisation of the amplicons in the plate.

Assay [7] relates to Anti-digoxygenin antibodies. Description: Colorimetric assay of stabilised proteins immobilised in modified glasses (Example 10.4). It is filed as biochemical, P. falciparum. On the procedure: To test the possibility of stabilising proteins that have been previously immobilised in pre-treated glass supports, the usual format of microarray systems, two different alternatives were tested as in the previous experiment.
Approach 1. Stabilisation of supports with previously fixed protein. Anti-digoxygenin antibodies were fixed to glass supports pre-treated with aldehyde. To do so, in each support slide 1 microlitre spots were applied of the solution of each protein at a concentration of 30 ng/µl. The slides with the immobilised protein were then coated with a thin layer of each of the stabilising mixtures and then desiccated in a vacuum oven at 25°C and 50 mbar pressure.
Approach 2. Fixation to the slides of the protein pre-mixed with the stabilising mixtures. A mixture was prepared of each of the probes with the suitable volumes of the stabilising mixtures described in Table 1. Then the mixtures of protein were applied to the various slides with the fixing conditions indicated for each glass format.
To test the viability of each slide prepared, a colorimetric assay was performed with formation of precipitate products. To do so, the slides were washed for 5 minutes in PBS 1X at room temperature to eliminate the protective layer.

For assay [8], the system named is probes marked with biotin or digoxygenin groups. Description: Synthesis of digoxygenin-marked probes with desiccated mixtures and molecular hybridisation test (Example 9).
Assay [9] concerns reaction mixture with SYBR Green. The assay is described as follows: Real-time amplification with desiccated, stabilised reaction mixture with SYBR Green after storage (Example 5). Format: biochemical, oncogenic papillomaviruses. The procedure:
To test the efficiency of intercalated fluorophores such as SYBR Green included in desiccated and stabilised reaction mixtures, reaction mixtures were prepared for amplifying a 250 bp fragment corresponding to region E6-E7 of oncogenic papillomaviruses, using the same reagents as described in Example 1. In this case the unit "DNA Engine OPTICON™ 2 System" (MJ Research) was used. […] Also to each phial was added […] of SYBR Green 1 (Molecular probes).
Various tubes were prepared as described above, adding to each the suitable volume of each stabilising mixture shown in Table 1.
In parallel, in order to check the evolution of the activity of the desiccated tubes, DNA samples were amplified using a fresh mixture in the same amplification conditions.
The result of the amplification reaction was analysed in every case by inspecting the fluorescence curve and determining the crossing point, following the instructions of the equipment software, for each reaction tube both fresh and desiccated and stabilised. […] The samples of patients infected with oncogenic HPV gave positive results in every case, while patients infected with non-oncogenic HPV, or not infected with HPV, gave negative results in every case.

The subject of a further assay is Scorpion probes. Description: Real-time amplification with desiccated, stabilised reaction mixture with Scorpion probes after storage (Example 4). It is filed as biochemical, M. tuberculosis.

With `OCC(O)CO` [Glycerol], the “activity of stabilising mixtures” value in assay [1] is on record as “++ (++, positive with 50-90% of the activity of the fresh mixture)”; in [2], “++ (++, positive with 50-90% of the activity of the fresh mixture)”; with FRET probes, “++ (++, positive with 50-90% of the activity of the fresh mixture)”; with antidigoxygenin antibody it was “++ (++, positive with 50-90% of the activity of the fresh mixture)”; in [3], “++ (++, positive with 50-90% of the activity of the fresh mixture)”; in the assay on TaqMan probes, “++ (++, positive with 50-90% of the activity of the fresh mixture)”. For the same molecule, the “activity of stabilising mixtures” value is reported as “++ (++, positive with 50-90% of the activity of the fresh mixture)” in [4]; “++ (++, positive with 50-90% of the activity of the fresh mixture)” in assay [5]; “++ (++, positive with 50-90% of the activity of the fresh mixture)” in assay [6]; “++ (++, positive with 50-90% of the activity of the fresh mixture)” in [7]; “++ (++, positive with 50-90% of the activity of the fresh mixture)” in assay [8].

On to `NCCCC[C@H](N)C(=O)O` [Lysine], for which the “activity of stabilising mixtures” value in [1] is “+ (+, weak positive, under 50% of the activity of the fresh mixture)”; in assay [2], “+ (+, weak positive, under 50% of the activity of the fresh mixture)”; in [9] it was “+ (+, weak positive, under 50% of the activity of the fresh mixture)”; in the assay on FRET probes, “+ (+, weak positive, under 50% of the activity of the fresh mixture)”; in the assay on antidigoxygenin antibody, “+ (+, weak positive, under 50% of the activity of the fresh mixture)”; in [3], “+ (+, weak positive, under 50% of the activity of the fresh mixture)”. The “activity of stabilising mixtures” value in the assay on Scorpion probes was “+ (+, weak positive, under 50% of the activity of the fresh mixture)”; in the assay on TaqMan probes it was “+ (+, weak positive, under 50% of the activity of the fresh mixture)”; in assay [4], “+ (+, weak positive, under 50% of the activity of the fresh mixture)”; in [5], “+ (+, weak positive, under 50% of the activity of the fresh mixture)”; in assay [6] it was “+ (+, weak positive, under 50% of the activity of the fresh mixture)”; in assay [7] it was “+ (+, weak positive, under 50% of the activity of the fresh mixture)”. Further, the “activity of stabilising mixtures” value in assay [8] is reported as “+ (+, weak positive, under 50% of the activity of the fresh mixture)”.

As to `OC[C@H]1O[C@@](CO)(O[C@H]2O[C@H](CO)[C@@H](O)[C@H](O)[C@H]2O)[C@@H](O[C@H]2O[C@H](CO)[C@@H](O)[C@H](O)[C@H]2O)[C@@H]1O` [Melezitose], the “activity of stabilising mixtures” value in assay [1] is “+ (+, weak positive, under 50% of the activity of the fresh mixture)”; in [2], “+ (+, weak positive, under 50% of the activity of the fresh mixture)”; in assay [9] it was “+ (+, weak positive, under 50% of the activity of the fresh mixture)”; in the assay on FRET probes, “+ (+, weak positive, under 50% of the activity of the fresh mixture)”; in the assay on antidigoxygenin antibody, “+ (+, weak positive, under 50% of the activity of the fresh mixture)”; in assay [3], “+ (+, weak positive, under 50% of the activity of the fresh mixture)”. Besides, the “activity of stabilising mixtures” value was “+ (+, weak positive, under 50% of the activity of the fresh mixture)” with Scorpion probes; “+ (+, weak positive, under 50% of the activity of the fresh mixture)” with TaqMan probes; “+ (+, weak positive, under 50% of the activity of the fresh mixture)” in [4]; “+ (+, weak positive, under 50% of the activity of the fresh mixture)” in [5]; “+ (+, weak positive, under 50% of the activity of the fresh mixture)” in assay [6]; “+ (+, weak positive, under 50% of the activity of the fresh mixture)” in assay [7]. For the same molecule, the “activity of stabilising mixtures” value in assay [8] is recorded as “+ (+, weak positive, under 50% of the activity of the fresh mixture)”.

In the case of `OC[C@@H](O)[C@@H](O)[C@H](O)[C@@H](O)CO` [Sorbitol], the “activity of stabilising mixtures” value in [1] is on record as “++ (++, positive with 50-90% of the activity of the fresh mixture)”; in assay [2], “++ (++, positive with 50-90% of the activity of the fresh mixture)”; in the assay with FRET probes, “++ (++, positive with 50-90% of the activity of the fresh mixture)”; in the assay on antidigoxygenin antibody, “++ (++, positive with 50-90% of the activity of the fresh mixture)”; in assay [3], “++ (++, positive with 50-90% of the activity of the fresh mixture)”; with TaqMan probes it was “++ (++, positive with 50-90% of the activity of the fresh mixture)”. The “activity of stabilising mixtures” value in assay [4] is recorded as “++ (++, positive with 50-90% of the activity of the fresh mixture)”; in assay [5], “++ (++, positive with 50-90% of the activity of the fresh mixture)”; in assay [6], “++ (++, positive with 50-90% of the activity of the fresh mixture)”; in assay [7], “++ (++, positive with 50-90% of the activity of the fresh mixture)”; in assay [8], “++ (++, positive with 50-90% of the activity of the fresh mixture)”.
